Key:
VR1 receptor [1] = assay: High throughput calcium imaging assay (Fura2, Flex Station) of VR1 antagonists, pH 5.1 stimulus; format: cell-based; details: 1 uM compound; inhibition of calcium ion influx induced by capsaicin stimulation
VR1 receptor [2] = biological target: T1, VR1 receptor (Rattus norvegicus, UniProt O35433); assay: Whole-cell patch clamp electrophysiology, capsaicin induced current in DRG neurons; format: cell-based
T1 construct: Dorsal root ganglion (DRG) neurons were recovered from either neonatal or adult rats; endogenous in cells; host or cells: primary rat dorsal root ganglion neurons
T1 sequence (O35433 whole entry): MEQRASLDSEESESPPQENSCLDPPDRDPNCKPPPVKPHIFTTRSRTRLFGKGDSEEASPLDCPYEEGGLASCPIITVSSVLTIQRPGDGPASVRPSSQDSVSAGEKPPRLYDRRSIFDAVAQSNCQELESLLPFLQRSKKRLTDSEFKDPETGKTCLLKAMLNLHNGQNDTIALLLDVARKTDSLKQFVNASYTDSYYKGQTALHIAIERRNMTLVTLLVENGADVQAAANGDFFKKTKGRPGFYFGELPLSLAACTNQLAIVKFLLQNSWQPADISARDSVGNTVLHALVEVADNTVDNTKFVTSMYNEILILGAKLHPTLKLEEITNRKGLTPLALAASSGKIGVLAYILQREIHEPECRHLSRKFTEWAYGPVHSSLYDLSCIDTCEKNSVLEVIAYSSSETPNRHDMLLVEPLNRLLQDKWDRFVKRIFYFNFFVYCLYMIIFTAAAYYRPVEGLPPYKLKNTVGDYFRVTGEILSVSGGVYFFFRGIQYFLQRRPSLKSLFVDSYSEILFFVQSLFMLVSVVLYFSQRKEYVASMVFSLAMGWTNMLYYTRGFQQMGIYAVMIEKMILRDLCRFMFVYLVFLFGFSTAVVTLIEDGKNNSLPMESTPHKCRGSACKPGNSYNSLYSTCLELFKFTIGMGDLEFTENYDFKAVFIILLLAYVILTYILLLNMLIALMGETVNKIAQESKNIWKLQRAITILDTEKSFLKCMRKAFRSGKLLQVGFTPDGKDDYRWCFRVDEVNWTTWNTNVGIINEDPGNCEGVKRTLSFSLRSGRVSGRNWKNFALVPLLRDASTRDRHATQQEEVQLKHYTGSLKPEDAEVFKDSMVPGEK
Method: Dorsal root ganglion (DRG) neurons were recovered from either neonatal or adult rats and plated onto poly-D-lysine coated glass coverslips. The plated neurons were transferred into a chamber to allow drug solutions to be added to the cells using a computer-controlled solenoid-valve based perfusion system. The cells were imaged using standard DIC optics. Cells were patched using finely-pulled glass electrodes. Voltage-clamp electrophysiology experiments were carried out using an Axon Instruments Multiclamp amplified controlled by pCLAMP8 software.
The cells were placed into a whole-cell voltage clamp and help at a voltage of −80 mV while monitoring the membrane current in gap-free recording mode. 500 nM capsaicin was added for 30 seconds as a control. Test compounds at various concentrations at ranging from (10-1000 nM) were added to the cells for 1 minute prior to a 30 second capsaicin application. Differences between control experiments and drug positive capsaicin experiments were used to determine the efficacy of each test compound. All compounds that inhibited capsaicin induced current greater than 50% were considered positives.

SMILES: CC(C)(C)c1ccc(NC(=O)c2ccc(-c3ncccc3Cl)cc2)cc1 [Compound 24]
- % Inhibition @ 1 uM (VR1 receptor [1]): + + + + (compound exhibited 75% or greater inhibition of calcium ion influx induced by capsaicin stimulation)
- dose response of inhibiting a capsaicin induced calcium ion influx (FIG. 4) (VR1 receptor [2]; 20 nM, 40 nM, 100 nM and 200 nM): increasing effectiveness
- inhibition at 0.2 µM (VR1 receptor [2]; DRG neuron, 200 nM compound, treatment time 25 seconds, 500 nM capsaicin, rat DRG neurons, -80 mV): 100%

SMILES: CCOc1ccc(NC(=O)c2ccc(-c3ncccc3Cl)cc2)cc1 [Compound 281]
- % Inhibition @ 1 uM (VR1 receptor [1]): + (“+” compound exhibited 0-25% inhibition of calcium ion influx induced by capsaicin stimulation.)

SMILES: O=C(Nc1ccc(C(F)(F)F)cc1)c1ccc(-c2ncccc2Cl)cn1 [Compound 308]
- % Inhibition @ 1 uM (VR1 receptor [1]): + (“+” compound exhibited 0-25% inhibition of calcium ion influx induced by capsaicin stimulation.)

SMILES: O=C(Nc1ccc2c(c1)Cc1ccccc1-2)c1ccc(-c2ncccc2Cl)cc1 [Compound 36]
- % Inhibition @ 1 uM (VR1 receptor [1]): + + (compound exhibited 25-50% inhibition of calcium ion influx induced by capsaicin stimulation)

SMILES: O=C(Nc1ccc(C(F)(F)F)cn1)c1ccc(-c2ncccc2Cl)cc1 [Compound 50]
- % Inhibition @ 1 uM (VR1 receptor [1]): + + (compound exhibited 25-50% inhibition of calcium ion influx induced by capsaicin stimulation)

SMILES: CCCc1ccccc1NC(=O)c1ccc(-c2ncccc2Cl)c(OC)c1 [Compound 195]
- % Inhibition @ 1 uM (VR1 receptor [1]): + + (compound exhibited 25-50% inhibition of calcium ion influx induced by capsaicin stimulation)

SMILES: O=C(Nc1ccc(F)cc1[N+](=O)[O-])c1ccc(-c2ncccc2Cl)c(F)c1 [Compound 132]
- % Inhibition @ 1 uM (VR1 receptor [1]): + + + + (compound exhibited 75% or greater inhibition of calcium ion influx induced by capsaicin stimulation)

SMILES: O=C(Nc1ccc(N2CCNCC2)cc1)c1ccc(-c2ncccc2Cl)cc1 [Compound 45]
- % Inhibition @ 1 uM (VR1 receptor [1]): + (compound exhibited 0-25% inhibition of calcium ion influx induced by capsaicin stimulation)

SMILES: Cc1ccc(NC(=O)c2ccc(-c3ncccc3Cl)c(F)c2)c(C)c1 [Compound 128]
- % Inhibition @ 1 uM (VR1 receptor [1]): + + + + (compound exhibited 75% or greater inhibition of calcium ion influx induced by capsaicin stimulation)

SMILES: CC1CCCc2ccc(NC(=O)c3ccc(-c4ncccc4Cl)c(F)c3)cc21 (stereo not shown) [Compound 186]
- % Inhibition @ 1 uM (VR1 receptor [1]): + (compound exhibited 0-25% inhibition of calcium ion influx induced by capsaicin stimulation)

SMILES: COc1cc(C(=O)Nc2ccc(Cl)cc2S(=O)(=O)O)ccc1-c1ncccc1Cl [Compound 261]
- % Inhibition @ 1 uM (VR1 receptor [1]): + (“+” compound exhibited 0-25% inhibition of calcium ion influx induced by capsaicin stimulation.)

SMILES: O=C(Nc1ccncc1)c1ccc(-c2ncccc2Cl)cc1F [Compound 62]
- % Inhibition @ 1 uM (VR1 receptor [1]): + (compound exhibited 0-25% inhibition of calcium ion influx induced by capsaicin stimulation)

SMILES: CC(C)Oc1cccc(NC(=O)c2ccc(-c3ncccc3Cl)cn2)c1 [Compound 345]
- % Inhibition @ 1 uM (VR1 receptor [1]): + (“+” compound exhibited 0-25% inhibition of calcium ion influx induced by capsaicin stimulation.)

SMILES: COc1cc(C(=O)Nc2ccc(Cl)c(C(=O)O)c2)ccc1-c1ncccc1Cl [Compound 242]
- % Inhibition @ 1 uM (VR1 receptor [1]): + + + + (“+ + + +” compound exhibited 75% or greater inhibition of calcium ion influx induced by capsaicin stimulation.)

SMILES: Cc1cc(NC(=O)c2ccc(-c3ncccc3Cl)cc2)nc(C)n1 [Compound 35]
- % Inhibition @ 1 uM (VR1 receptor [1]): + (compound exhibited 0-25% inhibition of calcium ion influx induced by capsaicin stimulation)

SMILES: O=C(Nc1ccccc1)c1ccc(-c2ncccc2Cl)cn1 [Compound 289]
- % Inhibition @ 1 uM (VR1 receptor [1]): + + + + (“+ + + +” compound exhibited 75% or greater inhibition of calcium ion influx induced by capsaicin stimulation.)

SMILES: COc1cc(C(=O)Nc2ccc(N3CCNCC3)c(Cl)c2)ccc1-c1ncccc1Cl [Compound 259]
- % Inhibition @ 1 uM (VR1 receptor [1]): + (“+” compound exhibited 0-25% inhibition of calcium ion influx induced by capsaicin stimulation.)

SMILES: O=C(Nc1ccc(N2CCNCC2)c(Cl)c1)c1ccc(-c2ncccc2Cl)cc1 [Compound 284]
- % Inhibition @ 1 uM (VR1 receptor [1]): + + + (“+ + +” compound exhibited 50-75% inhibition of calcium ion influx induced by capsaicin stimulation.)

SMILES: COc1ccc(NC(=O)c2ccc(-c3ncccc3Cl)cc2)cc1O [Compound 271]
- % Inhibition @ 1 uM (VR1 receptor [1]): + (“+” compound exhibited 0-25% inhibition of calcium ion influx induced by capsaicin stimulation.)

SMILES: O=C(Nc1ccc(Cl)c(C(=O)O)c1)c1ccc(-c2ncccc2Cl)c(F)c1 [Compound 166]
- % Inhibition @ 1 uM (VR1 receptor [1]): + + + + (compound exhibited 75% or greater inhibition of calcium ion influx induced by capsaicin stimulation)

SMILES: N#Cc1ccccc1NC(=O)c1ccc(-c2ncccc2Cl)cn1 [Compound 292]
- % Inhibition @ 1 uM (VR1 receptor [1]): + (“+” compound exhibited 0-25% inhibition of calcium ion influx induced by capsaicin stimulation.)

SMILES: O=C(Nc1cccc(Cl)c1)c1ccc(-c2ncccc2Cl)cc1 [Compound 12]
- % Inhibition @ 1 uM (VR1 receptor [1]): + (compound exhibited 0-25% inhibition of calcium ion influx induced by capsaicin stimulation)

SMILES: O=C(Nc1ccnc(Cl)c1)c1ccc(-c2ncccc2Cl)cn1 [Compound 325]
- % Inhibition @ 1 uM (VR1 receptor [1]): + (“+” compound exhibited 0-25% inhibition of calcium ion influx induced by capsaicin stimulation.)

SMILES: COc1cc(NC(=O)c2ccc(-c3ncccc3Cl)cn2)cc(C(F)(F)F)c1 [Compound 311]
- % Inhibition @ 1 uM (VR1 receptor [1]): + (“+” compound exhibited 0-25% inhibition of calcium ion influx induced by capsaicin stimulation.)

SMILES: CC(C)(C)c1ccc(NC(=O)c2ccc(-c3ncccc3Cl)cc2F)cc1 [Compound 86]
- % Inhibition @ 1 uM (VR1 receptor [1]): + (compound exhibited 0-25% inhibition of calcium ion influx induced by capsaicin stimulation)

SMILES: O=C(Nc1ccc(C(F)(F)F)cc1)c1ccc(-c2ncccc2Cl)c(F)c1 [Compound 135]
- % Inhibition @ 1 uM (VR1 receptor [1]): + + (compound exhibited 25-50% inhibition of calcium ion influx induced by capsaicin stimulation)

SMILES: O=C(Nc1ccc(OCc2ccccc2)cc1)c1ccc(-c2ncccc2Cl)cn1 [Compound 332]
- % Inhibition @ 1 uM (VR1 receptor [1]): + (“+” compound exhibited 0-25% inhibition of calcium ion influx induced by capsaicin stimulation.)

SMILES: COc1ccc(NC(=O)c2ccc(-c3ncccc3Cl)cc2)cn1 [Compound 32]
- % Inhibition @ 1 uM (VR1 receptor [1]): + (compound exhibited 0-25% inhibition of calcium ion influx induced by capsaicin stimulation)

SMILES: N#Cc1cccc(NC(=O)c2ccc(-c3ncccc3Cl)cn2)c1 [Compound 299]
- % Inhibition @ 1 uM (VR1 receptor [1]): + + + + (“+ + + +” compound exhibited 75% or greater inhibition of calcium ion influx induced by capsaicin stimulation.)

Source: US20050197364A1, “Amide compounds as ion channel ligands and uses thereof” (priority 2003, published 2005)
